Key:
Rat Hepatocytes (rHep) = assay: Metabolic stability in rat hepatocytes (rHep); type: in vitro ADME; conditions: n = 1 or geometric mean (n = 2-3)
Experimental: Metabolic stability in rat hepatocytes was measured as described in J Comput Aided Mol Des 2015, 29, 795.

[1] = molecular target: T1, human dipeptidylpeptidase 8 (hDPP8) (Homo sapiens, UniProt Q6V1X1); assay: hDPP8 inhibition assay; type: biochemical; conditions: hDPP8 1.5 nM, Ala-Pro-amino-methylcoumarin 5 μM; n = 1
T1 construct: purchased BPS Bioscience 80080
Experimental: (§1) Compounds were tested in a biochemical inhibition assay using human dipeptidylpeptidase 8 (hDPP8) enzyme at 1.5 nM FAC (BPS Bioscience, #80080) and the substrate Ala-Pro-amino-methylcoumarin (BPS Bioscience #80305) at 5 μM FAC. The enzymatic reactions were conducted in duplicate at rt for 30 min in 50 μL DPP assay buffer (BPS Bioscience, #80300). Compound solutions (in DMSO) at 10 CR, 3 fold dilution series were prepared in assay buffer ten-fold higher than the final concentration, and 5 μL of the dilution was added to a 50 μL reaction so that the highest compound concentration was 100 μM FAC and the concentration of DMSO was 1% in all wells. The plates were read on a Tecan Infinite M1000 microplate reader with excitation 340 nm and emission 460 nm. Data were analyzed in Graph Pad Prism. […] Raw data signals were normalized using 1% DMSO as 0% control and no enzyme as 100% inhibitor control.

[2] = molecular target: T2, human dipeptidylpeptidase 9 (hDPP9) (Homo sapiens, UniProt Q86TI2); assay: hDPP9 inhibition assay; type: biochemical; conditions: hDPP9 0.4 nM, Ala-Pro-amino-methylcoumarin 5 μM; n = 1
T2 construct: purchased BPS Bioscience 80090
Experimental: as §1, with “9 (hDPP9)” for “8 (hDPP8)”, “0.4” for “1.5”, “#80090)” for “#80080)”

[3] = molecular target: T3, human dipeptidylpeptidase 7 (hDPP7) (Homo sapiens, UniProt Q9UHL4); assay: hDPP7 inhibition assay; type: biochemical; conditions: hDPP7 15 nM, Ala-Pro-amino-methylcoumarin 5 μM; n = 1
T3 construct: purchased BPS Bioscience 80070
Experimental: Compounds were tested in a biochemical inhibition assay using human dipeptidylpeptidase 7 (hDPP7) enzyme at 15 nM FAC (BPS Bioscience, #80070) and the substrate Ala-Pro-amino-methylcoumarin (BPS Bioscience, #80305) at 5 μM FAC. The enzymatic reactions were conducted in duplicate at rt for 30 min in 50 μL DPP assay buffer (BPS Bioscience, #80300). Compound solutions (in DMSO) at 10 CR, 3 fold dilution series were prepared in assay buffer ten-fold higher than the final concentration, and 5 μL of the dilution was added to a 50 μL reaction so that the highest compound concentration was 100 μM FAC and the concentration of DMSO was 1% in all wells. The plates were read on a Tecan Infinite M1000 microplate reader with excitation 340 nm and emission 460 nm. Data were analyzed in Graph Pad Prism. […] Raw data signals were normalized using 1% DMSO as 0% control and no enzyme as 100% inhibitor control.

T2 sequence (Q86TI2 whole entry): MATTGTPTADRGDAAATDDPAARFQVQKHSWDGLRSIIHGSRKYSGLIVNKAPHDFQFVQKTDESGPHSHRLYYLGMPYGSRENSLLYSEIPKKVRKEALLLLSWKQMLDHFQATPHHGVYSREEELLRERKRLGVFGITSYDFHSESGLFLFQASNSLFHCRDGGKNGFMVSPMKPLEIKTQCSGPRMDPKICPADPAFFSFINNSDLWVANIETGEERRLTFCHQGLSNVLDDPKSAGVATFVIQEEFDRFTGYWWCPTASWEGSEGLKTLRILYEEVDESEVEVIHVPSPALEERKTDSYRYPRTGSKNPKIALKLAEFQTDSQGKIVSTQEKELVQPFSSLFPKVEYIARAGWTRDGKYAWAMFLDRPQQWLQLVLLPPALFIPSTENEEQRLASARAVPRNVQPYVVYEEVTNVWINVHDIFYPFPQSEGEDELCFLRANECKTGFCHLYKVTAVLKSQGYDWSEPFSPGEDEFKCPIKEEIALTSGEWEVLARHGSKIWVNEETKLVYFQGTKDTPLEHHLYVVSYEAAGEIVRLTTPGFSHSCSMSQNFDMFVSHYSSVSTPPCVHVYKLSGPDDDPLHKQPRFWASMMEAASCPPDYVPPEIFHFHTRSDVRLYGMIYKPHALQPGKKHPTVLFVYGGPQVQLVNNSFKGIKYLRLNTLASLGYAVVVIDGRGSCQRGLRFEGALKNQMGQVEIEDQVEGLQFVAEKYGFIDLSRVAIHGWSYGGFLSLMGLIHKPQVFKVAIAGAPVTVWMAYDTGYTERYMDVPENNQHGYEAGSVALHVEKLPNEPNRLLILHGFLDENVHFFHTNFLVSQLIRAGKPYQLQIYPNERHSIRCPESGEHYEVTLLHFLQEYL
T1 sequence (Q6V1X1 whole entry): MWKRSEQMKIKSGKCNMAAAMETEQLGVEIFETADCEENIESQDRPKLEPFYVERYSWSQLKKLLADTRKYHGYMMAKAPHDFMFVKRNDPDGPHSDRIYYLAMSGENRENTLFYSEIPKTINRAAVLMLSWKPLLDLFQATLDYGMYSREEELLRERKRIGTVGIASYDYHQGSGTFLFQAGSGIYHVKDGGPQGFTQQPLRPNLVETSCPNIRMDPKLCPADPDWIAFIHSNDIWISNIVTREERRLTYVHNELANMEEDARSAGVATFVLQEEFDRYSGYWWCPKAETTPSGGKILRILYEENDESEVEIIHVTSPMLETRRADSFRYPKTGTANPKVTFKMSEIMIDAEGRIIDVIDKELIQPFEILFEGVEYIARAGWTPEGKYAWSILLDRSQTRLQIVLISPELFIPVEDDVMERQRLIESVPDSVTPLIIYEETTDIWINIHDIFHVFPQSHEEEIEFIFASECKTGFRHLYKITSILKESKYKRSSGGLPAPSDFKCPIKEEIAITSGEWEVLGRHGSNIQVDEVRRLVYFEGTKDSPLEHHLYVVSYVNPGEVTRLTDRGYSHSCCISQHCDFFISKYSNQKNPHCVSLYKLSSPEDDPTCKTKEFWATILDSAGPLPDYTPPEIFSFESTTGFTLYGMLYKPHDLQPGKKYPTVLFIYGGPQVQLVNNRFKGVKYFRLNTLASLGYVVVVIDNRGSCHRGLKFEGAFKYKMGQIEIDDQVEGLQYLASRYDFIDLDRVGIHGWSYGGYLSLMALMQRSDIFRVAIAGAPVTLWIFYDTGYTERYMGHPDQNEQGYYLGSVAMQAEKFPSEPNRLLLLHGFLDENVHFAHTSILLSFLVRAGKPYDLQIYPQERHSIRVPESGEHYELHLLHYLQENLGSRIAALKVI

Row | rHeps CLint (Rat Hepatocytes (rHep)) [μL/min/1E6] | IC50 [1] [µM] | IC50 [2] [nM] | IC50 [3] [µM] | Structure (SMILES)
1 | 26 |  |  |  | COC(C)(C)c1ccc2nccc(C(=O)NCC(=O)N3CSC[C@H]3C#N)c2c1 [Example 18, (R)—N-(2-(4-Cyanothiazolidin-3-yl)-2-oxoethyl)-6-(2-methoxypropan-2-yl)quinoline-4-carboxamide]
2 |  | 6.4 | 1900 | > 100 | CC(C)(F)COc1ccc2nccc(C(=O)NCC(=O)N3CSC[C@H]3C#N)c2c1 [Example 3, (R)—N-(2-(4-Cyanothiazolidin-3-yl)-2-oxoethyl)-6-(2-fluoro-2-methylpropoxy)quinoline-4-carboxamide]

Source: US20260070899A1, “N-(2-(4-CYANOTHIAZOLIDIN-3-YL)-2-OXOETHYL)-QUINOLINE-4-CARBOXAMIDES” (AstraZeneca AB, priority 2022, published 2026)
